The record followed here is patent US10968203B2, “Pyrimidinyl-pyridyloxy-naphthyl compounds and methods of treating IRE1-related diseases and disorders” (Genentech, Inc., priority 2017, dated 2021).

This experiment relates to XBP1s-luc 293 LUC. Briefly: cellular PD assay, XBP1s-LUC reporter (Example 903). The class given is cell-based. The settings on record: read-out: XBP1s-luc 293 LUC (IC50). As to the method:
Inhibition of IRE1α RNase activity was determined in an enzyme assay that measured cleavage of the XBP1 stem loop by autophosphorylated IRE1α. This assay format was chosen to ensure that inhibitors of either the IRE1α kinase or the RNase domains would be identified. Binding to the ATP pocket and inhibition of IRE1α kinase activity are not necessarily required to inhibit the RNase activity. Compounds were also profiled in cellular assays by direct measurement of XBP s (B-DNA assay) or by quantification of the luciferase signal in HT1080 XBP1-Luc, which carries a luciferase fusion that is only in frame and expressed from the spliced XBP1 transcript.
Biological activity of Formula I or I′ compounds was measured by an IRE1 biochemical binding assay (Example 901), a biochemical RNase assay (Example 902), a cellular PD assay, XBP1s-LUC reporter (Example 903), and an IRE1α-based inhibition of multiple myeloma (MM) cell proliferation assay.
All of the exemplary Formula I or I′ compounds in Tables 1 and 2 were made and characterized by LCMS [M+H]^+ (liquid chromatography mass spectroscopy) with detection of parent ion. All of the exemplary Formula I compounds in Tables 1 and 2 were prepared according to the procedures of the Schemes, General Procedures, and Examples. All of the exemplary Formula I or I′ compounds in Tables 1 and 2 were tested for binding to IRE1 (inositol requiring enzyme 1 alpha) and biological activity according to the assays and protocols of Example 901-903. Exemplary Formula I or I′ compounds in Tables 1 and 2 have the following structures, corresponding IUPAC names (ChemBioDraw, Version 12.0.2, CambridgeSoft Corp., Cambridge Mass.), and biological activity. Where more than one name is associated with a Formula I or I′ compound or intermediate in Tables 1 and 2 and the Experimental Procedures, the chemical structure shall define the compound. Assignment of configuration at chiral centers in separated stereoisomers may be tentative, and depicted in Tables 1 and 2 structures for illustrative purposes, before stereochemistry is definitively established, such as from x-ray crystallographic data. In some cases, stereoisomers are separated and tested for biological activity before the stereochemistry of the separated stereoisomers is determined; and stereochemistry in some instances was inferred based on structure-activity relationship (SAR) knowledge from previous compounds. In some cases, the compounds are tested as racemic or diastereomeric mixtures. Where more than one potency value is entered on a row, separated stereoisomers represented by the structure and name on that row were tested. Exemplary compounds of Formula I or I′ in Table 3 can be prepared using methods known in the art or according to procedures similar to those described in the Schemes, General Procedures, and Examples 101-500. Biological activities of compounds in Table 3 can be tested in biological assays, for example, those in Examples 901, 902 and 903 described herein.

Structures can show the parent of a compound that is named as a salt. Where two headings read alike, the source gives them in different places.

Take `Cc1ccc2c(NCC(O)C(C)C)cccc2c1Oc1ncccc1-c1ccnc(N[C@H]2CCCNC2)n1` (mixture of isomers) [Example 200, 3-Methyl-1-((6-methyl-5-((3-(2-((S)-piperidin-3-ylamino)pyrimidin-4-yl)pyridin-2-yl)oxy)naphthalen-1-yl)amino)butan-2-ol]: where the note is “Table 1”, the IC50 – broadly, the concentration needed to halve the response being measured – is 77 nM.
Consider `CCCC(=O)Nc1cccc2c(Oc3ncccc3-c3ccnc(N[C@H]4CCCNC4)n3)c(C)ccc12` [Example 117, (S)—N-(6-Methyl-5-((3-(2-(piperidin-3-ylamino)pyrimidin-4-yl)pyridin-2-yl)oxy)naphthalen-1-yl)butyramide hydrochloride], for which the IC50 (Table 1) came to 145 nM.
As for `Cc1ccc2c(NC(=O)CC(C)C)cccc2c1Oc1ncccc1-c1ccnc(N[C@H]2CCCNC2)n1` [Example 188, (S)-3-Methyl-N-(6-methyl-5-((3-(2-(piperidin-3-ylamino)pyrimidin-4-yl)pyridin-2-yl)oxy)naphthalen-1-yl)butanamide], the IC50 (Table 1) is 141 nM.
In the case of `Cc1nc(CS(=O)(=O)Nc2c(F)ccc3c(Oc4ncccc4-c4ccnc(N[C@H]5CNC[C@H](F)C5)n4)c(C)ccc23)cs1` (single isomer, unassigned) [Example 491, hydrochloride], the IC50 (Table 2) was found to be 117 nM.
For `Cc1cc(NS(=O)(=O)CCC(F)(F)F)c2ccccc2c1Oc1ncccc1-c1ccnc(N[C@H]2CCCNC2)n1` [Example 478, (S)-3,3,3-Trifluoro-N-(3-methyl-4-((3-(2-(piperidin-3-ylamino)pyrimidin-4-yl)pyridin-2-yl)oxy)naphthalen-1-yl)propane-1-sulfonamide], the half-inhibitory concentration (IC50) (Table 2) worked out at 118 nM.
Take `Cc1ccc2c(NC(=O)[C@@H]3CC3(F)F)cccc2c1Oc1ncccc1-c1ccnc(N[C@H]2CCCNC2)n1` (single isomer, unassigned) [Example 180]: the IC50 (Table 1) came to 213 nM.
As to `Cc1ccc2c(NS(=O)(=O)N3CCC3)cccc2c1Oc1ncccc1-c1ccnc(N[C@H]2CCCNC2)n1` [Example 195, (S)—N-(6-Methyl-5-((3-(2-(piperidin-3-ylamino)pyrimidin-4-yl)pyridin-2-yl)oxy)naphthalen-1-yl)azetidine-1-sulfonamide], the IC50 (Table 1) was 202 nM.
As to `Cc1ccc2c(NC(C)c3cscn3)cccc2c1Oc1ncccc1-c1ccnc(N[C@H]2CCCNC2)n1` (single isomer, unassigned) [Example 295], the 50% inhibitory concentration (IC50) (Table 1) came to 209 nM.
Regarding `Cc1ccc2c(NS(=O)(=O)[C@@H](C)c3ccccc3)cccc2c1Oc1ncccc1-c1ccnc(N[C@H]2CCCNC2)n1` (single isomer, unassigned) [Example 214], the IC50 (Table 1) amounted to 76 nM.
Consider `Cc1ccc2c(NC(=O)C(Cl)Cl)cccc2c1Oc1ncccc1-c1ccnc(N[C@H]2CCCNC2)n1` [Example 338, (S)-2,2-Dichloro-N-(6-methyl-5-(3-(2-(piperidin-3-ylamino)pyrimidin-4-yl)pyridin-2-yloxy)naphthalen-1-yl)acetamide], for which the IC50 (Table 1) came out at 161 nM.
Same read-out and setting: then `Cc1ccc2c(NC(=O)[C@H]3CCC(F)(F)C3)cccc2c1Oc1ncccc1-c1ccnc(N[C@H]2CCCNC2)n1` (single isomer, unassigned) [Example 270], with 189 nM.
Same read-out and setting: the figure for `Cc1ccc2c(NS(=O)(=O)CCC3CC3)cccc2c1Oc1ncccc1-c1ccnc(N[C@H]2CCCNC2)n1` [Example 129, (S)-2-Cyclopropyl-N-(6-methyl-5-((3-(2-(piperidin-3-ylamino)pyrimidin-4-yl)pyridin-2-yl)oxy)naphthalen-1-yl)ethanesulfonamide] is 301 nM; for `Cc1ccc2c(NC[C@H](O)C(F)(F)F)cccc2c1Oc1ncccc1-c1ccnc(N[C@@H]2CNC[C@H](C)C2)n1` [Example 321, (S)-1,1,1-Trifluoro-3-((6-methyl-5-((3-(2-(((3S,5R)-5-methylpiperidin-3-yl)amino)pyrimidin-4-yl)pyridin-2-yl)oxy)naphthalen-1-yl)amino)propan-2-ol] it is 7.36 nM.
On the same count and under the same terms, then `COCCS(=O)(=O)Nc1c(F)ccc2c(Oc3ncccc3-c3ccnc(N[C@H]4CCCNC4)n3)c(C)ccc12` [Example 185, (S)—N-(2-Fluoro-6-methyl-5-((3-(2-(piperidin-3-ylamino)pyrimidin-4-yl)pyridin-2-yl)oxy)naphthalen-1-yl)-2-methoxyethanesulfonamide], with 73.5 nM; and `Cc1ccc2c(NCC(C)C)cccc2c1Oc1ncccc1-c1ccnc(N[C@H]2CCCNC2)n1` [Example 349, (S)-4-(2-((5-(Isobutylamino)-2-methylnaphthalen-1-yl)oxy)pyridin-3-yl)-N-(piperidin-3-yl)pyrimidin-2-amine], with 432 nM.
Consider `Cc1ccc2c(N3CCCCCC3=O)cccc2c1Oc1ncccc1-c1ccnc(N[C@H]2CCCNC2)n1` [Example 249, (S)-1-(6-Methyl-5-((3-(2-(piperidin-3-ylamino)pyrimidin-4-yl)pyridin-2-yl)oxy)naphthalen-1-yl)azepan-2-one], for which, where the note is “Table 1”, the IC50 came out at 309 nM.
Consider `COc1c(Cl)cccc1CS(=O)(=O)Nc1c(F)ccc2c(Oc3ncccc3-c3ccnc(N[C@H]4CCCNC4)n3)c(C)ccc12` [Example 437, (S)-1-(3-Chloro-2-methoxyphenyl)-N-(2-fluoro-6-methyl-5-((3-(2-(piperidin-3-ylamino)pyrimidin-4-yl)pyridin-2-yl)oxy)naphthalen-1-yl)methanesulfonamide hydrochloride], for which the IC50 (Table 2) stood at 18 nM.
Turning to `Cc1cccc(S(=O)(=O)Nc2cccc3c(Oc4ncccc4-c4ccnc(N[C@H]5CCCNC5)n4)c(C)ccc23)n1` [Example 171, (S)-6-Methyl-N-(6-methyl-5-((3-(2-(piperidin-3-ylamino)pyrimidin-4-yl)pyridin-2-yl)oxy)naphthalen-1-yl)pyridine-2-sulfonamide], the IC50 (Table 1) worked out at 309 nM.
For `Cc1ccc2c(NC[C@H](O)C(F)F)cccc2c1Oc1ncccc1-c1ccnc(N[C@H]2CCCNC2)n1` (single isomer, unassigned) [Example 475, hydrochloride], the IC50 (Table 2) stood at 19 nM.
As to `Cc1ccc2c(NS(=O)(=O)CCC(F)(F)F)cccc2c1Oc1ncccc1-c1ccnc(N[C@H]2CCCNC2)n1` [Example 123, (S)-3,3,3-Trifluoro-N-(6-methyl-5-((3-(2-(piperidin-3-ylamino)pyrimidin-4-yl)pyridin-2-yl)oxy)naphthalen-1-yl)propane-1-sulfonamide hydrochloride], the IC50 (Table 1) was 84 nM.
As for `CCCS(=O)(=O)Nc1c(F)ccc2c(Oc3ncccc3-c3ccnc(N[C@@H]4CNC[C@@H](F)C4)n3)c(C)ccc12` (single isomer, unassigned) [Example 328], the IC50 (Table 1) stood at 15.2 nM.
As for `Cc1ccc2c(NCC(C)(C)O)cccc2c1Oc1ncccc1-c1ccnc(N[C@H]2CCCNC2)n1` [Example 306, (S)-2-Methyl-1-((6-methyl-5-((3-(2-(piperidin-3-ylamino)pyrimidin-4-yl)pyridin-2-yl)oxy)naphthalen-1-yl)amino)propan-2-ol], the IC50 (Table 1) came out at 240 nM.
In the case of `Cc1ccc2c(NC(=O)C[C@@H](O)C(F)(F)F)cccc2c1Oc1ncccc1-c1ccnc(N[C@H]2CCCNC2)n1` (single isomer, unassigned) [Example 436], under “Table 2”, the IC50 came out at 75 nM.
Turning to `Cc1ccc2c(NCCCF)cccc2c1Oc1ncccc1-c1ccnc(N[C@H]2CCCNC2)n1` [Example 241, (S)-4-(2-((5-((3-Fluoropropyl)amino)-2-methylnaphthalen-1-yl)oxy)pyridin-3-yl)-N-(piperidin-3-yl)pyrimidin-2-amine], the IC50 (Table 1) is 141 nM.
